Data taken from ChEMBL document CHEMBL3769309, “Design, synthesis and biological evaluation of bisthiazole-based trifluoromethyl ketone derivatives as potent HDAC inhibitors with improved cellular efficacy” (Eur J Med Chem, 2016).

Legend:
[1] = target: Histone deacetylase 4 (Homo sapiens, UniProt P56524); experiment: Inhibition of full length His6-tagged GST-fused recombinant human HDAC4 expressed in High5 insect cells using Ac-Lys-Tyr-Lys (e-acetyl)-AMC as substrate after 24 hrs by fluorescence assay; assay type: cell-based
Chain of Histone deacetylase 4 (P56524 whole entry, the tested form may be a part): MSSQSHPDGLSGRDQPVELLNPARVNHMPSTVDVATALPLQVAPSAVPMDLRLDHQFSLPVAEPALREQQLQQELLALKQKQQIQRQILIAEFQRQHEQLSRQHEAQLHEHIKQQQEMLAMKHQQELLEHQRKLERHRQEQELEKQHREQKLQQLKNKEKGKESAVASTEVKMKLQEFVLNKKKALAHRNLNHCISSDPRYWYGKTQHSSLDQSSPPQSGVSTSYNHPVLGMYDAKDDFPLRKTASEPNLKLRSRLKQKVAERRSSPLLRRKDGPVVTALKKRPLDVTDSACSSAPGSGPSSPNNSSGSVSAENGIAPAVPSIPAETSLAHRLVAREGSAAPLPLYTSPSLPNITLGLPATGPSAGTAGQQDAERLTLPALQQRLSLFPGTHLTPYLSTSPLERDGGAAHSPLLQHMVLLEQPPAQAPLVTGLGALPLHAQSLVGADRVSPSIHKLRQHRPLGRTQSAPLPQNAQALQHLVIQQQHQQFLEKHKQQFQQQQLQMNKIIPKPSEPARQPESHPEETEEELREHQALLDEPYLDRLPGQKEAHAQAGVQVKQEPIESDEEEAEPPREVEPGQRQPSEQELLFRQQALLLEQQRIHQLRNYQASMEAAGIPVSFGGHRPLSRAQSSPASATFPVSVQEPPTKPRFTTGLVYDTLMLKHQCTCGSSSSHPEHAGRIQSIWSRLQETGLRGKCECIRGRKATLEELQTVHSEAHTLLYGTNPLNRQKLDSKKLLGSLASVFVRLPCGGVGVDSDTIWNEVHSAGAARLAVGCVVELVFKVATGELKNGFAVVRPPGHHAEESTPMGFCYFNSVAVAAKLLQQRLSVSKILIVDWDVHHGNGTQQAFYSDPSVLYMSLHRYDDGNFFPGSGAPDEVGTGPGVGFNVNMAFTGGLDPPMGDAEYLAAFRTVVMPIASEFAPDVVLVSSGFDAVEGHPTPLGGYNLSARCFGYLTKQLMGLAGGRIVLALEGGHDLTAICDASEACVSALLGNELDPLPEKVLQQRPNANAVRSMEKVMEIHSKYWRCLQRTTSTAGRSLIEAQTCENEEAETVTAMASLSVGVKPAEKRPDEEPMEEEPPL

[2] = target: T1, Protein deacetylase HDAC6 (Homo sapiens, UniProt Q9UBN7); experiment: Inhibition of full length His6-tagged GST-fused recombinant human HDAC6 expressed in High5 insect cells using Boc-Lys (e-acetyl)-AMC as substrate after 3 hrs by fluorescence assay; assay type: cell-based
T1 sequence (Q9UBN7 whole entry): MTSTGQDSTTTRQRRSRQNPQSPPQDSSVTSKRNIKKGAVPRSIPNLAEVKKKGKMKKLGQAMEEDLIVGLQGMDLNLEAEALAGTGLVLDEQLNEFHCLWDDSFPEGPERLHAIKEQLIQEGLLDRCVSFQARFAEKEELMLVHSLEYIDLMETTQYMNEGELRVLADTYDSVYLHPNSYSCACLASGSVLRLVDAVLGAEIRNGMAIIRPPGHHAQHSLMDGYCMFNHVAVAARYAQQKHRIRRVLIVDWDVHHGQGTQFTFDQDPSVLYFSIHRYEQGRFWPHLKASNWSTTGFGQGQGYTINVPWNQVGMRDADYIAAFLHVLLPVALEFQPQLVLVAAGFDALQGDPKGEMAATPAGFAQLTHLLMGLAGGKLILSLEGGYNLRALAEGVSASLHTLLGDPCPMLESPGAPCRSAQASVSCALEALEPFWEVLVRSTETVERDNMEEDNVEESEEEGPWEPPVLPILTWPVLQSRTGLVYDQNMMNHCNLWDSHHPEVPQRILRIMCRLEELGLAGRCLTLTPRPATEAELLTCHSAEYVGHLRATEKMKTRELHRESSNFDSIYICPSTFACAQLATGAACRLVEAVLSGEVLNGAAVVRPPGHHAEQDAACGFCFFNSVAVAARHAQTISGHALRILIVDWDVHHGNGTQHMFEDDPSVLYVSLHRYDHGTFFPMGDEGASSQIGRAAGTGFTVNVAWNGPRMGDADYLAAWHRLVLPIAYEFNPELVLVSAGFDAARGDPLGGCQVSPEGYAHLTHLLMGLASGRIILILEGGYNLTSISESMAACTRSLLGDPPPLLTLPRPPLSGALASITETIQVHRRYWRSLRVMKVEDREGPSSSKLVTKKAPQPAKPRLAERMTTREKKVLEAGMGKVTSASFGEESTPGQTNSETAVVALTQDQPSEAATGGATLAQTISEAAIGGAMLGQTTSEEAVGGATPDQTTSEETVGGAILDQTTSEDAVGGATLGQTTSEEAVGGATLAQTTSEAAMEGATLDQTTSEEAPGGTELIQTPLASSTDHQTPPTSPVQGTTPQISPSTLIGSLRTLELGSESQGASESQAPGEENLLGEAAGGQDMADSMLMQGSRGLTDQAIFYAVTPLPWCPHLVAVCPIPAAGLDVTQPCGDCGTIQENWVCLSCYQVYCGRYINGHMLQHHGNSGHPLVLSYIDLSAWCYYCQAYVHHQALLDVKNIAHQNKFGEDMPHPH

[3] = Antiproliferative activity against human MM1S cells after 72 hrs by CellTiter 96 aqueous non-radioactive cell proliferation assay; assay type: functional, cell-based; details: MM1.S
[4] = tested on: RPMI-8226; experiment: Induction of apoptosis in human RPMI8226 cells assessed as early apoptotic cells at 1 uM after 48 hrs by annexin V-FITC/propidium iodide staining-based flow cytometry (reference value: 6.3%); assay type: functional
[5] = tested on: RPMI-8226; experiment: cells; assay type: functional; details: Homo sapiens, RPMI-8226, 48 h
[6] = tested on: RPMI-8226; experiment: Induction of apoptosis in human RPMI8226 cells assessed as increase in cleaved PARP level after 24 hrs by Western immunoblotting method; assay type: functional, cell-based
[7] = tested on: RPMI-8226; experiment: Induction of apoptosis in human RPMI8226 cells assessed as dead cells at 0.3 uM after 48 hrs by annexin V-FITC/propidium iodide staining-based flow cytometry (reference value: 2%); assay type: functional
[8] = Antiproliferative activity against human RPMI8226 cells after 72 hrs by CellTiter 96 aqueous non-radioactive cell proliferation assay; assay type: functional, cell-based; details: RPMI-8226, 72 h
[9] = Antiproliferative activity against human NCI-H929 cells after 72 hrs by CellTiter 96 aqueous non-radioactive cell proliferation assay; assay type: functional, cell-based; details: NCI-H929, 72 h
[10] = tested on: LP-1; experiment: Antiproliferative activity against human LP-1 cells after 72 hrs by CellTiter 96 aqueous non-radioactive cell proliferation assay; assay type: functional, cell-based; details: LP-1, 72 h
[11] = Antiproliferative activity against human Mino cells after 72 hrs by CellTiter 96 aqueous non-radioactive cell proliferation assay; assay type: functional, cell-based
[12] = Antiproliferative activity against human JeKo1 cells after 72 hrs by CellTiter 96 aqueous non-radioactive cell proliferation assay; assay type: functional, cell-based; details: JeKo-1, 72 h
[13] = tested on: RPMI-8226; experiment: Induction of apoptosis in human RPMI8226 cells assessed as late apoptotic cells at 0.3 uM after 48 hrs by annexin V-FITC/propidium iodide staining-based flow cytometry (reference value: 4.4%); assay type: functional
[14] = tested on: RPMI-8226; experiment: Induction of apoptosis in human RPMI8226 cells assessed as viable cells at 0.3 uM after 48 hrs by annexin V-FITC/propidium iodide staining-based flow cytometry (reference value: 87.2%); assay type: functional; details: RPMI-8226, 48 h, read-out: Activity
[15] = tested on: RPMI-8226; experiment: Induction of apoptosis in human RPMI8226 cells assessed as early apoptotic cells at 0.3 uM after 48 hrs by annexin V-FITC/propidium iodide staining-based flow cytometry (reference value: 6.3%); assay type: functional
[16] = tested on: RPMI-8226; experiment: Induction of apoptosis in human RPMI8226 cells assessed as dead cells at 1 uM after 48 hrs by annexin V-FITC/propidium iodide staining-based flow cytometry (reference value: 2%); assay type: functional
[17] = tested on: RPMI-8226; experiment: Induction of apoptosis in human RPMI8226 cells assessed as late apoptotic cells at 1 uM after 48 hrs by annexin V-FITC/propidium iodide staining-based flow cytometry (reference value: 4.4%); assay type: functional
[18] = tested on: RPMI-8226; experiment: Induction of apoptosis in human RPMI8226 cells assessed as viable cells at 1 uM after 48 hrs by annexin V-FITC/propidium iodide staining-based flow cytometry (reference value: 87.2%); assay type: functional; details: RPMI-8226, 48 h, read-out: Activity
[19] = target: Histone deacetylase 1 (Homo sapiens, UniProt Q13547); experiment: Inhibition of full length His6-tagged GST-fused recombinant human HDAC1 expressed in High5 insect cells using Ac-Lys-Tyr-Lys (e-acetyl)-AMC as substrate after 24 hrs by fluorescence assay; assay type: cell-based
Chain of Histone deacetylase 1 (Q13547 whole entry, the tested form may be a part): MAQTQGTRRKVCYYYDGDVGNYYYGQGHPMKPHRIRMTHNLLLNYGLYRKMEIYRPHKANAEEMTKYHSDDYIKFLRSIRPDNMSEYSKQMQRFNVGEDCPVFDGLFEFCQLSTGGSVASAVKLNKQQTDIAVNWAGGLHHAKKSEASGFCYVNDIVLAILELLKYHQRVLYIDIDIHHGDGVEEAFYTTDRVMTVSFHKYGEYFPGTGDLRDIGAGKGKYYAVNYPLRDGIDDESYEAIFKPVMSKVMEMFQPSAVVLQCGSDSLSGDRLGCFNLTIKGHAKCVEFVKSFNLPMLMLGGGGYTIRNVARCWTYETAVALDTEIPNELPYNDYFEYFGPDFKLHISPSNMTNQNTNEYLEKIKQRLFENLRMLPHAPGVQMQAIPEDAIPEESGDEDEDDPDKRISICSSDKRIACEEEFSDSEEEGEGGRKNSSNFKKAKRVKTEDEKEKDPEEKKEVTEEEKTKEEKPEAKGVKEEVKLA

[20] = target: Histone deacetylase 3 (Homo sapiens, UniProt O15379); experiment: Inhibition of full length His6-tagged GST-fused recombinant human HDAC3 expressed in High5 insect cells using Ac-Lys-Tyr-Lys (e-acetyl)-AMC as substrate after 24 hrs by fluorescence assay; assay type: cell-based
Chain of Histone deacetylase 3 (O15379 whole entry, the tested form may be a part): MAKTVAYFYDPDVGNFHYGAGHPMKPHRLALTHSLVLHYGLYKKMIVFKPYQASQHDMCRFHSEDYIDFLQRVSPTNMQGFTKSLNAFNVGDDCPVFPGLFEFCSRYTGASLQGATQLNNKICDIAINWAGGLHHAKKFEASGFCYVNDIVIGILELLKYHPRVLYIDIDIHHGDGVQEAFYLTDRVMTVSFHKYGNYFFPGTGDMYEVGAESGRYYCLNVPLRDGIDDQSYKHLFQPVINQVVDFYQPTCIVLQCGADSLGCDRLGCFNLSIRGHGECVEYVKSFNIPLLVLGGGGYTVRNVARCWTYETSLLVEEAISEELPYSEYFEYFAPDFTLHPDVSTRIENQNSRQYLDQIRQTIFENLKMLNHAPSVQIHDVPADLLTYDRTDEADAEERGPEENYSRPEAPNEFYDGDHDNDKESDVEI

O=C(NCCCC(=O)C(F)(F)F)c1nc(-c2nccs2)sc1C1CC1
IC50 [1]: > 10000 nM

O=C(NO)NCCCCNC(=O)c1nc(-c2nccs2)sc1C1CC1
IC50 [1]: > 10000 nM

Cc1cnc(-c2nc(C(=O)NCCCCC(=O)C(F)(F)F)c(C3CC3)s2)s1
IC50 [1]: 32 nM | IC50 [2]: 23.4 nM

CC(C)Cc1sc(-c2nccs2)nc1C(=O)NCCCCC(=O)C(F)(F)F
IC50 [1]: 120 nM

O=C(NCCCCCC(=O)C(F)(F)F)c1nc(-c2nccs2)sc1C1CC1
IC50 [1]: 133 nM

O=C(CCCCCCC(=O)Nc1ccccc1)NO [VORINOSTAT]
IC50 [3]: 820 nM

O=C(NCCCCC(=O)C(F)(F)F)c1nc(-c2nccs2)sc1C1CC1
Activity [4]: 13.4% | viability at 3 µM [5]: 21.1% | Activity [6]: Dose-dependent effect | Activity [7]: 2.8% | IC50 [1]: 31.5 nM | IC50 [3]: 390 nM | IC50 [8]: 85 nM | IC50 [9]: 1230 nM | IC50 [10]: 370 nM | IC50 [11]: 120 nM | IC50 [12]: 64 nM | Activity [13]: 23.9% | viability at 0.3 µM [14]: 57.8% | Activity [15]: 15.4% | Activity [16]: 7.7% | Activity [17]: 50.7% | viability at 1 µM [18]: 28.2%

O=C(NCCCCC(O)C(F)(F)F)c1nc(-c2nccs2)sc1C1CC1 (stereo not drawn)
IC50 [19]: > 10000 nM | IC50 [20]: 8860 nM | IC50 [1]: > 10000 nM | IC50 [2]: > 10000 nM

O=C(NCCCCC(=O)C(F)(F)F)c1nc(-c2nccs2)sc1Cc1ccccc1
IC50 [19]: 66.1 nM | IC50 [20]: 65.1 nM | IC50 [1]: 68.2 nM | IC50 [2]: 58.4 nM

O=C(NCCCCC(=O)C(F)(F)F)c1nc(-c2nc3c(s2)CCCC3)sc1C1CC1
IC50 [1]: 23.4 nM

O=C(NCCCCCNC(=O)c1nc(-c2nccs2)sc1C1CC1)c1cccc(-c2noc(C(F)(F)F)n2)c1
IC50 [19]: > 10000 nM | IC50 [20]: > 10000 nM | IC50 [1]: > 10000 nM | IC50 [2]: > 10000 nM

Nc1ccccc1NC(=O)CCCCNC(=O)c1nc(-c2nccs2)sc1C1CC1
IC50 [1]: 2090 nM
